Source: article PMC9655119, “Sustained Activation of CLR/RAMP Receptors by Gel-Forming Agonists” (International Journal of Molecular Sciences, 2022)
Read-outs that look alike come from different tables or passages of the source. Positions of bridges follow the written chain, without caps; N, C: chain ends. Non-standard residues stand in square brackets, D forms with d. Residues, ends and D or L forms follow the SMILES beside them. *: point of attachment. Palmitoyl = CCCCCCCCCCCCCCCC(=O)*; AEEA = NCCOCCOCC(=O)O

How the values were obtained:
Format in all cases: cell-based
[1] = test system: primary human lymphatic microvascular endothelial (HLME) cells; assay: HLME cell survival (MTT assay); details: 30, 100, 300 nmoles/L, medium with 0.1% FBS, 72 h, quintuplicate samples
Procedure: (§1) Primary human lymphatic microvascular endothelial cells (HLME cells; Cell Applications, Inc., San Diego, CA, USA) were maintained in a microvascular endothelial cell growth medium supplemented with 10% fetal bovine serum (FBS). […] After 72-h incubation, cell viability was determined with the 3-(4,5-dimethylthiazol-2-yl)-2,5-diphenyltetrazolium bromide (MTT) assay (Promega). To evaluate the effects on endothelial cell survival, HLME cells were treated with different concentrations of the agonist or controls (30, 100, and 300 nmoles/L) and cultured in a basal medium with 0.1% FBS for 72 h. Cell viability was then assayed with the MTT assay.

[2] = test system: primary human lymphatic microvascular endothelial (HLME) cells; assay: HLME cell proliferation (MTT assay); details: 30, 100, 300 nmoles/L, medium with 2% FBS, 72 h, quintuplicate samples
Procedure: as §1

human CLR/RAMP1 = biological target: T1, human CLR/RAMP1 (Homo sapiens, UniProt O60894+Q16602); assay: CLR/RAMP1 receptor-activation assay (DiscoverX cAMP Hunter, HitHunter cAMP XS+); details: read-out: CLR/RAMP1 Max Activity
T1 construct: host or cells: 1321N1 cells (cAMP Hunter cell line)
T1 sequence (Q16602 23-461): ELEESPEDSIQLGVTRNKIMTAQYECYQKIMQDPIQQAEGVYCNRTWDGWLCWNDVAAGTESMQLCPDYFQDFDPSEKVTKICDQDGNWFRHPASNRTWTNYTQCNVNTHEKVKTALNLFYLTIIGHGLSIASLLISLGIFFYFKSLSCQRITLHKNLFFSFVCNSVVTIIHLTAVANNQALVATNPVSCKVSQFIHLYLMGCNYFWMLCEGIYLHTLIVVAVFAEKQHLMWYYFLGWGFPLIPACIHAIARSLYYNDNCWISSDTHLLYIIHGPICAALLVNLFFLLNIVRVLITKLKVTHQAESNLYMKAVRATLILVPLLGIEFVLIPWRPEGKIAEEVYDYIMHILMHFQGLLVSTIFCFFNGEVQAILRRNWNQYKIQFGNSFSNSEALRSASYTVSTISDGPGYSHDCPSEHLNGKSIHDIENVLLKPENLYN
T1 sequence (O60894 27-148): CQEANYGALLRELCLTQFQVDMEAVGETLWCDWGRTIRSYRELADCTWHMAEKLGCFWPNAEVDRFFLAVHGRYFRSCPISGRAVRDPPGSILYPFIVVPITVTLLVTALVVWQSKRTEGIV
Procedure: (§2) The bioactivity of peptide analogs was studied using CLR/RAMP1, CLR/RAMP2, and CLR/RAMP3 assays by DiscoveRx (Fremont, CA, USA) in cells that stably express human CLR/RAMP1 (1321N1 cells), CLR/RAMP2 (CHO-K1 cells), or CLR/RAMP3 (CHO-K1 cells). The dose-dependent stimulatory effect of agonists was studied in duplicate, at 10 different concentrations. Determination of the half-maximal effective concentration (EC50) was performed using a 10-point dose-response curves. The starting concentration was 1.0 μM, and it was serially diluted 3-fold, in DMSO.
Cells were seeded in a total volume of 20 μL into 384-well microplates, and the activity was determined using the DiscoverX HitHunter cAMP XS + assay. Before the assay, media was aspirated from cells and replaced with 15 μL 2:1 HBSS/10 mM Hepes: cAMP XS + Ab reagent. Intermediate dilution of samples was performed to generate 4X sample in assay buffer, and 5 μL of the 4X sample was added to cells and incubated at 37°C. Vehicle concentration was 1%.
The chemiluminescent signal was read with a PerkinElmer instrument.

human CLR/RAMP2 = biological target: T2, human CLR/RAMP2 (Homo sapiens, UniProt O60895+Q16602); assay: CLR/RAMP2 receptor-activation assay (PathHunter β-Arrestin); details: […], read-out: CLR/RAMP2 Max Activity
T2 construct: host or cells: CHO-K1 cells (PathHunter β-Arrestin cell line)
T2 sequence (Q16602 23-461): as the sequence (Q16602 23-461) above
T2 sequence (O60895 43-175): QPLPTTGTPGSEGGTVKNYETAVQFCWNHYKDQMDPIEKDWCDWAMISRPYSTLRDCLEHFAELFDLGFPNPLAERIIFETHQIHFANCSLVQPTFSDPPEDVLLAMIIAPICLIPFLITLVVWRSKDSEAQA
Procedure: as §2
In this assay, the CLR was fused in frame with a small enzyme donor fragment ProLink™ (PK). The receptor was co-expressed with a fusion protein of β-arrestin and an N-terminal deletion mutant of β-galactosidase (i.e., enzyme acceptor). Activation of the CLR/RAMP2 receptor stimulated the binding of β-arrestin to the PK-tagged receptor and led to an increase in enzyme activities which can then be measured with the PathHunter detection reagents. PathHunter cell lines were seeded in a total volume of 20 μL into 384-well microplates and incubated at 37 °C prior to the assay. Intermediate dilution of samples was performed to generate 5X samples in the assay buffer. A 5 μL aliquot of 5X sample was added to cells and incubated at 37 °C for 90 min. Vehicle concentration was 1%.

Emax (human CLR/RAMP1; percentage of positive control β-CGRP) [%] | Structure (SMILES) | effect on HLME cell survival [1] | effect on HLME cell proliferation [2] | Emax (human CLR/RAMP2) [%] | Emax (human CLR/RAMP1) [%]
– | CC[C@H](C)[C@H](NC(=O)[C@H](CCC(N)=O)NC(=O)[C@H](Cc1c[nH]cn1)NC(=O)[C@H](C)NC(=O)[C@H](CC(C)C)NC(=O)[C@H](CCCCN)NC(=O)[C@H](CCC(N)=O)NC(=O)[C@@H](NC(=O)[C@@H](NC(=O)[C@@H]1CSSC[C@H](NC(=O)CNC(=O)[C@H](CCCCN)NC(C)=O)C(=O)N[C@@H](CCCNC(=N)N)C(=O)N[C@@H](Cc2ccccc2)C(=O)NCC(=O)N[C@@H]([C@@H](C)O)C(=O)N1)[C@@H](C)O)C(C)C)C(=O)N[C@@H](Cc1ccc(O)cc1)C(=O)N[C@@H](CCC(N)=O)C(=O)N[C@@H](Cc1ccccc1)C(=O)N[C@H](C(=O)N[C@@H](CC(=O)O)C(=O)N[C@@H](CCCCN)C(=O)N[C@@H](CC(=O)O)C(=O)N[C@@H](CCCCN)C(=O)N[C@@H](CC(=O)O)C(=O)N[C@@H](CC(N)=O)C(=O)N[C@@H](CO)C(=O)N[C@@H](C)C(=O)N1CCC[C@H]1C(=O)N[C@H](C(=O)N[C@@H](CC(=O)O)C(=O)N1CCC[C@H]1C(=O)N[C@@H](CO)C(=O)N[C@@H](CO)C(=O)N1CCC[C@H]1C(=O)N[C@@H](Cc1c[nH]cn1)C(=O)N[C@@H](CO)C(=O)N[C@@H](Cc1ccc(O)cc1)C(N)=O)C(C)C)[C@@H](C)O [Analog B-6] | minimal effects | – | – | –
63 | CC[C@H](C)[C@H](NC(=O)[C@H](CCC(N)=O)NC(=O)[C@H](Cc1c[nH]cn1)NC(=O)[C@H](C)NC(=O)[C@H](CC(C)C)NC(=O)[C@H](CCCCN)NC(=O)[C@H](CCC(N)=O)NC(=O)[C@@H](NC(=O)[C@@H](NC(=O)[C@@H]1CSSC[C@H](NC(=O)CNC(=O)[C@H](Cc2ccccc2)NC(=O)[C@H](CO)NC(=O)[C@H](CCCNC(=N)N)NC(=O)[C@H](CC(C)C)NC(=O)CNC(=O)[C@H](CCC(N)=O)NC(=O)[C@H](Cc2ccccc2)NC(=O)[C@H](CC(N)=O)NC(=O)[C@H](CC(N)=O)NC(=O)[C@H](CCSC)NC(=O)[C@H](CO)NC(=O)[C@H](CCC(N)=O)NC(=O)[C@H](CCCNC(=N)N)NC(=O)[C@@H](N)Cc2ccc(O)cc2)C(=O)N[C@@H](CCCNC(=N)N)C(=O)N[C@@H](Cc2ccccc2)C(=O)NCC(=O)N[C@@H]([C@@H](C)O)C(=O)N1)[C@@H](C)O)C(C)C)C(=O)N[C@@H](Cc1ccc(O)cc1)C(=O)N[C@@H](CCC(N)=O)C(=O)N[C@@H](Cc1ccccc1)C(=O)N[C@H](C(=O)N[C@@H](CC(=O)O)C(=O)N[C@@H](CCCCN)C(=O)N[C@@H](CC(=O)O)C(=O)N[C@@H](CCCCN)C(=O)N[C@@H](CC(=O)O)C(=O)N[C@@H](CC(N)=O)C(=O)N[C@H](C(=O)N[C@@H](C)C(=O)N1CCC[C@H]1C(=O)N[C@@H](CCCNC(=N)N)C(=O)N[C@@H](CO)C(=O)N[C@@H](CCCCN)C(=O)N[C@H](C(=O)N[C@@H](CO)C(=O)N1CCC[C@H]1C(=O)N[C@@H](CCC(N)=O)C(=O)NCC(=O)N[C@@H](Cc1ccc(O)cc1)C(N)=O)[C@@H](C)CC)C(C)C)[C@@H](C)O [ADM1-52] | minimal effects | minimal effects | – | –
– | CCCCCCCCCCCCCCCC(=O)NCCCC[C@H](NC(=O)COCCOCCN)C(=O)N[C@H](C(=O)N[C@@H](CCCCN)C(=O)N[C@@H](CCCCN)C(=O)N[C@H](C(=O)N[C@@H](CC(C)C)C(=O)N[C@@H](CCCNC(=N)N)C(=O)N[C@H](C(=O)NCC(=O)N[C@H]1CSSC[C@@H](C(=O)N[C@H](C(=O)N[C@H](C(=O)N[C@@H](CCC(N)=O)C(=O)N[C@@H](CCCCN)C(=O)N[C@@H](CC(C)C)C(=O)N[C@@H](C)C(=O)N[C@@H](Cc2c[nH]cn2)C(=O)N[C@@H](CCC(N)=O)C(=O)N[C@H](C(=O)N[C@@H](Cc2ccc(O)cc2)C(=O)N[C@@H](CCC(N)=O)C(=O)N[C@@H](Cc2ccccc2)C(=O)N[C@H](C(=O)N[C@@H](CC(=O)O)C(=O)N[C@@H](CCCCN)C(=O)N[C@@H](CC(=O)O)C(=O)N[C@@H](CCCCN)C(=O)N[C@@H](CC(=O)O)C(=O)N[C@@H](CC(N)=O)C(=O)N[C@H](C(=O)N[C@@H](C)C(=O)N2CCC[C@H]2C(=O)N[C@@H](CCCNC(=N)N)C(=O)N[C@@H](CO)C(=O)N[C@@H](CCCCN)C(=O)N[C@H](C(=O)N[C@@H](CO)C(=O)N2CCC[C@H]2C(=O)N[C@@H](CCC(N)=O)C(=O)NCC(=O)N[C@@H](Cc2ccc(O)cc2)C(N)=O)[C@@H](C)CC)C(C)C)[C@@H](C)O)[C@@H](C)CC)C(C)C)[C@@H](C)O)NC(=O)[C@H]([C@@H](C)O)NC(=O)CNC(=O)[C@H](Cc2ccccc2)NC(=O)[C@H](CCCNC(=N)N)NC1=O)[C@@H](C)O)[C@@H](C)O)[C@@H](C)O [Analog C-8] | – | – | 68 | 69
– | CCCCCCCCCCCCCCCC(=O)NCCCC[C@H](NC(=O)COCCOCCN)C(=O)NCC(=O)N[C@H]1CSSC[C@@H](C(=O)N[C@H](C(=O)N[C@H](C(=O)N[C@@H](CCC(N)=O)C(=O)N[C@@H](CCCCN)C(=O)N[C@@H](CC(C)C)C(=O)N[C@@H](C)C(=O)N[C@@H](Cc2c[nH]cn2)C(=O)N[C@@H](CCC(N)=O)C(=O)N[C@H](C(=O)N[C@@H](Cc2ccc(O)cc2)C(=O)N[C@@H](CCC(N)=O)C(=O)N[C@@H](Cc2ccccc2)C(=O)N[C@H](C(=O)N[C@@H](CC(=O)O)C(=O)N[C@@H](CCCCN)C(=O)N[C@@H](CC(=O)O)C(=O)N[C@@H](CO)C(=O)N[C@@H](C)C(=O)N2CCC[C@H]2C(=O)N[C@H](C(=O)N[C@@H](CC(=O)O)C(=O)N2CCC[C@H]2C(=O)N[C@@H](CO)C(=O)N[C@@H](CO)C(=O)N2CCC[C@H]2C(=O)N[C@@H](Cc2c[nH]cn2)C(=O)N[C@@H](CO)C(=O)N[C@@H](Cc2ccc(O)cc2)C(N)=O)C(C)C)[C@@H](C)O)[C@@H](C)CC)C(C)C)[C@@H](C)O)NC(=O)[C@H]([C@@H](C)O)NC(=O)CNC(=O)[C@H](Cc2ccccc2)NC(=O)[C@H](CCCNC(=N)N)NC1=O [Analog D-1] (H-[AEEA]K(Palmitoyl)GCRFGTCTVQKLAHQIYQFTDKDSAPVDPSSPHSY-NH2; disulfide 4-9) | – | – | 77 | 78
– | CCCCCCCCCCCCCCCC(=O)NCCCC[C@H](NC(=O)COCCOCCN)C(=O)NCC(=O)N[C@H]1CSSC[C@@H](C(=O)N[C@H](C(=O)N[C@H](C(=O)N[C@@H](CCC(N)=O)C(=O)N[C@@H](CCCCN)C(=O)N[C@@H](CC(C)C)C(=O)N[C@@H](C)C(=O)N[C@@H](Cc2c[nH]cn2)C(=O)N[C@@H](CCC(N)=O)C(=O)N[C@H](C(=O)N[C@@H](Cc2ccc(O)cc2)C(=O)N[C@@H](CCC(N)=O)C(=O)N[C@@H](Cc2ccccc2)C(=O)N[C@H](C(=O)N[C@@H](CC(=O)O)C(=O)N[C@@H](CCCCN)C(=O)N[C@@H](CC(=O)O)C(=O)N[C@@H](CCCCN)C(=O)N[C@@H](CC(=O)O)C(=O)N[C@@H](CC(N)=O)C(=O)N[C@H](C(=O)N[C@@H](C)C(=O)N2CCC[C@H]2C(=O)N[C@@H](CCCNC(=N)N)C(=O)N[C@@H](CO)C(=O)N[C@@H](CCCCN)C(=O)N[C@H](C(=O)N[C@@H](CO)C(=O)N2CCC[C@H]2C(=O)N[C@@H](CCC(N)=O)C(=O)NCC(=O)N[C@@H](Cc2ccc(O)cc2)C(N)=O)[C@@H](C)CC)C(C)C)[C@@H](C)O)[C@@H](C)CC)C(C)C)[C@@H](C)O)NC(=O)[C@H]([C@@H](C)O)NC(=O)CNC(=O)[C@H](Cc2ccccc2)NC(=O)[C@H](CCCNC(=N)N)NC1=O [Analog C-7] | – | – | 147 | 70
